In patent US11230570B2, “Peptide for regulating reactivity to serotonin reuptake inhibitor based antidepressant, and use thereof” (DAEGU GYEONGBUK INSTITUTE OF SCIENCE AND TECHNOLOGY, priority 2018, dated 2022):
Where a name gives a salt, the structure may show the parent alone. No end group written: not given here.

Columns and labels:
mice [1] = assay: Novelty suppressed feeding test (NSF/NFS); type: in vivo, mouse; conditions: in s (unit assumed); for NSF test latency: CNO 0.3 mg/kg
Protocol: For chronic drug administration, 2 to 5 mice were housed in each cage. Fluoxetine hydrochloride (Spectrum Chemicals, USA) was intraperitoneally injected (10 mg kg-1 day-1) daily for 3 weeks. The drug was prepared by being dissolved in dimethyl sulfoxide (50%), and diluted with saline. For a control, a drug-free vehicle solution (0.9% saline) was administered daily. For a Gi-DREADD mouse experiment, clozapine-N-oxide (CNO; Sigma-Aldrich, USA) was directly dissolved in a 0.9% saline solution. A dose of CNO was 0.3 mg/kg, and 2 hours before each behavioral test, 100 μl/10 g of a solution per body weight was intraperitoneally injected.
(4) Novelty Suppressed Feeding Test (NSF)
(§1) The test was carried out for 15 minutes by partially changing a conventional method. 24 hours before behavioral testing, all food provided to the home cage was removed. […], a single 1.8-cm square-shaped food pellet was placed on a white filter paper positioned in the center of the test box. The mouse was placed in the corner of an open field, and a stopwatch was immediately operated. The latency to first bite food was recorded. Immediately after the test, the mice were placed in the home cage, and the amount of food intake was measured for 10 minutes.

mice [2] = assay: Home cage feeding (HCF) test; type: in vivo, mouse; conditions: for home cage feeding level: control AcGFP1 and PASIP-AcGFP1 mice, chronic fluoxetine
Protocol: as §1

[3] = target: T1, p11/AnxA2/SMARCA3 complex (Homo sapiens, UniProt P07355+P60903); assay: Immunoprecipitation of p11/AnxA2/SMARCA3 complex in HEK293 cells; type: binding; conditions: in vitro immunoprecipitation with α-SMARCA3, HEK293 cells
T1 construct: endogenous in cells; host or cells: HEK293 (CRL-1573, ATCC)
Protocol: 1-4. Immunoprecipitation of p11/AnxA2/SMARCA3 Complex
HEK293 cells (CRL-1573, ATCC) were transfected with a CMV-Cre plasmid, and 24 hours after transfection, transfected with an AAV vector expressing the control AcGFP1 or PASIP-AcGFP1 construct. Immunoprecipitation was performed with α-SMARCA3 antibodies (rabbit polyclonal antibodies prepared with immunized peptides). Immunoblotting was performed using the following antibodies according to a standard protocol: α-p11 (mouse monoclonal, 1:1000, BD Biosciences), α-p11 (goat polyclonal, 1:200, R&D Systems), α-SMARCA3 (goat polyclonal, 1:200, NOVUS), α-AnxA2 (mouse monoclonal, Santa Cruz Biotech.), α-GFP (goat polyclonal, Santa Cruz Biotech).

[4] = system: BrdU+ proliferating cells in the subgranular zone of the dentate gyrus; assay: BrdU labeling and neurogenic analysis; type: in vivo, mouse
Protocol: 1-8. BrdU Labeling and Neurogenic Analysis
Before the mice were sacrificed, a BrdU solution (200 mg/kg) was intraperitoneally administered for 3 hours. After transcardial perfusion, brain tissue was fixed with 4% PFA overnight, coronal sections with a 40-μm thickness were collected along the hippocampal rostro-caudal axis using a cryostat (CM3050S, Leica). The sections were processed using a free-floating method. Every sixth section throughout the hippocampus was subjected to BrdU immunohistochemical staining. Afterward, sections were pre-incubated with 1M HCl at 45° C. for 30 minutes to denature DNA, and washed three times with 0.1M PBS for neutralization. Immunohistochemistry was performed with α-BrdU (rat polyclonal, 1:200, Abcam, Cambridge, Mass., USA) and Alexa-Fluor™-conjugated secondary antibodies (1:400, Life Technologies, USA). A tester who was not given information on a slide code counted BrdU-labeled cells in the granule cell layer (GCL) and the subgranular zone (SGZ) of the dentate gyrus (DG) in the total of 12 sections derived from individual mice. The total number of BrdU-labeled cells per section was determined and multiplied by 6 to obtain the total number of cells per dentate gyrus.

mice [5] = assay: Light and dark box test; type: in vivo, mouse; conditions: PASIP-AcGFP1 mice vs control AcGFP1 154±16; p<0.01
Protocol: (3) Light and Dark Box Test (LD Box)
Mice were placed in an open field area (40×40×40 cm). A black box was inserted into the open field. The mice were placed into light compartments at the beginning of a session, and allowed to freely move between the compartments for 10 minutes. The time spent in each compartment and the latency to first enter the dark compartment were measured using automated Superflex™ software.

mice [6] = assay: Tail suspension test (TST); type: in vivo, mouse; conditions: for inactivity (immobility) in TST: in s (unit assumed)
Protocol: (5) Tail Suspension Test (TST) Mice were suspended by tails for 6 minutes. A test session was videotaped, and their immobility was scored using automated TST analysis software of Clever System (Reston, Va., USA). The immobility time during the last 4 minutes (excluding the initial 2 minutes) was calculated.

mossy cells = assay: Electrophysiological recording of hippocampal mossy cells in brain slices; type: cell-based, mouse; conditions: for activity of mossy cells: CNO perfused on slices
Excerpt: Electrophysiological Evaluation of Hippocampal Mossy Cells […] To label and visualize mossy cells in hippocampal slices, a recombinant AAV vector (AAV2.EF1α.DIO.AcGFP1-myc) was bilaterally injected into the dentate hilus of the ventral hippocampus in […]. AcGFP1 was selectively expressed in the mossy cells. While recording the electrophysiological evaluation, the morphology, membrane capacitance and electrophysiological properties of the mossy cells were further confirmed. (2) Preparation of Slices 12-15-week male mice were euthanized with CO2. Subsequently, their brains were extracted and placed in an N-Methyl-D-glucamine-containing cutting solution (93 mM NMDG, 2.5 mM KCl, 1.2 mM NaH2PO4, 30 mM NaHCO3, 25 mM glucose, 20 mM HEPES, 5 mM sodium ascorbate, 3 mM sodium pyruvate, 2 mM thiourea, 0.5 mM CaCl2), 10 mM MgSO4. pH 7.4, 295-305 mM mOsm) on cold ice. The brain tissue slices (400-μm thickness) containing the ventral hippocampus were prepared using a VT1000 S Vibratome (Leica Microsystems Inc., Buffalo Grove, Ill., USA). After cutting, slices were allowed to recover in the cutting solution at 37° C. for 15 minutes, and then transferred to a recording solution at room temperature for at least 1 hour before recording of the electrophysiological evaluation. (3) Electrophysiological Recording Electrophysiological recordings were performed as described above. During recording, brain slices were placed in a perfusion chamber attached to a fixed stage of an upright microscope BX51WI (Olympus, Tokyo, Japan), and immersed in a continuously flowing oxygenated recording solution. Components contained in the solution are as follows: 125 mM NaCl, 25 mM NaHCO3, 25 mM glucose, 2.5 mM KCl, 1.25 mM NaH2PO4, 2 mM CaCl2) and 1 mM MgCl2, pH 7.4, 295-305 mM mOsm. Neurons were visualized with a 40× water immersion lens using near infrared (IR) light. Electrophysiological recording was performed using a Multiclamp 700B/Digidata 1440A system (Molecular Devices, Sunnyvale, Calif., USA). Patch electrodes were filled with an internal solution (126 mM K-gluconate, 10 mM KCl, 10 mM HEPES, 10 mM phosphocreatine, 4 mM ATP and 0.3 mM GTP, pH 7.3, 290 mM mOsmol). Whole-cell patch-clamp recordings were used to record spontaneous action potentials of mossy cells in the hippocampal slides, and all recording was performed at 37° C. […] In addition, CNO (1 mM) was perfused on the brain tissue slices to confirm the effect of Gi-DREADD. Experimental data was analyzed by pClamp10 software (Molecular Devices) and GraphPad Prism 6 (GraphPad Software, La Jolla, Calif., USA).

[7] = system: newborn postmitotic cells (DCX); assay: Doublecortin (DCX) immunostaining of immature neurons; type: in vivo, mouse; conditions: chronic fluoxetine administration, control mice
Protocol: 1-7. Immunohistochemistry
Immunostaining was carried out using the standard free-floating method. Sections were washed three times with PBS for 10 minutes each time, and incubated with 2% normal donkey serum, 0.2% bovine serum albumin and 0.3% Triton-X100. After blocking, the sections were incubated with primary antibodies diluted with a blocking buffer overnight at 4° C., the following primary antibodies were used: α-doublecortin (goat polyclonal, 1:200, Santa Cruz Biotech.), α-calretinin (mouse monoclonal, 1:500, SWANT), α-parvalbumin (rabbit polyclonal, 1:1000, SWANT), α-neuropeptide Y (rabbit polyclonal, 1:1000, Phoenix Pharmaceutical), α-GluR2/3 (rabbit polyclonal, 1:100, Millipore). After incubation for 24 hours, the sections were washed three times with PBS containing 0.2% Triton-X100 (PBS-T) for 10 minutes, and then incubated with Alexa-Fluor™-conjugated secondary antibodies (1:400, Life Technologies, USA) at room temperature for 3 hours. The sections were washed three times with PBS-T at room temperature for 10 minutes, and covered with a Prolong™ Gold, anti-fading mounting medium (Life Technologies, USA).

T1 sequence (P60903 whole entry): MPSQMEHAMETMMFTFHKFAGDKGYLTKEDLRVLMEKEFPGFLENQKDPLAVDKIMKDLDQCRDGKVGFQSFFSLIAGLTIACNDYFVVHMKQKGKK
T1 sequence (P07355 2-339 limits assumed): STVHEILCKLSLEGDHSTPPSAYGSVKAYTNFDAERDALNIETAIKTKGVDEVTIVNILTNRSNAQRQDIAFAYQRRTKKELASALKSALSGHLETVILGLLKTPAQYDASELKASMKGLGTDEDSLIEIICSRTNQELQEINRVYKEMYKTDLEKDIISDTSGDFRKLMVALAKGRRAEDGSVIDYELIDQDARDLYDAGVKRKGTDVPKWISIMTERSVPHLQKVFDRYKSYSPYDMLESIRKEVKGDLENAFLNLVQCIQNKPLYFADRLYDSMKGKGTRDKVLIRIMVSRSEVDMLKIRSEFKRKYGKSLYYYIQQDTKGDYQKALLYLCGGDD

Molecule: PASIP-AcGFP1: p11/AnxA2/SMARCA3 complex inhibitory peptide-AcGFP1 fusion construct, expressed from a Cre-dependent AAV vector (GNGNGKVTFPKMKIPKFSGR; also: fused to AcGFP1)
- latency to feed (mice [1]; PASIP-AcGFP1 mice, SAL): 304±51
- latency to feed (mice [1]; PASIP-AcGFP1 mice, chronic FLX): 293±54
- home cage feeding level (mice [2]): did not have a significant influence
- assembly of the p11/AnxA2/SMARCA3 complex [3]: able to block the assembly of the p11/AnxA2/SMARCA3 complex
- BrdU+ proliferating cells ([4]; PASIP-AcGFP1 mice (AAV, mossy cells), SAL): 119±27
- BrdU+ proliferating cells ([4]; PASIP-AcGFP1 mice (AAV, mossy cells), chronic FLX): 129±13
- light/dark box test (mice [5]): 94±13
- effect of fluoxetine in tail-suspension test (mice [6]; PASIP-AcGFP1 mice, chronic fluoxetine): reduced an effect caused by fluoxetine administration
- firing rate of mossy cells (mossy cells; mossy cells expressing construct (control AcGFP1 3.58±0.56 Hz)): 0.64±0.10 Hz
- resting membrane potential in mossy cells (mossy cells; mossy cells expressing construct (control AcGFP1 −47.33±1.77 mV)): −54.33±1.32 mV

Molecule: CNCCC(Oc1ccc(C(F)(F)F)cc1)c1ccccc1 (stereo not shown) [FLX, Fluoxetine hydrochloride]
- NSF test latency (mice [1]; Gi-DREADD mice, chronic FLX (SAL 450±36)): 365±40
- latency to access a food pellet (mice [1]; Smarca3f/f control mice (D2-Cre experiment), chronic FLX (SAL 257±47)): 104±12
- latency to access a food pellet (mice [1]; Smarca3f/f control mice (MC-Cre experiment), chronic FLX (SAL 338±20)): 229±40
- latency to access a food pellet (mice [1]; Smarca3f/f;D2-Cre conditional knockout mice, chronic FLX (SAL 192±15)): 232±32
- latency to access a food pellet (mice [1]; Smarca3f/f;MC-Cre conditional knockout mice, chronic FLX (SAL 405±88)): 404±69
- NSF test latency (mice [1]; control (mCherry) mice, chronic FLX (SAL 484±85)): 238±40
- latency to feed (mice [1]; control AcGFP1 mice, chronic fluoxetine (SAL 296±48)): 147±22
- latency to access a food pellet (mice [1]; p11f/f control mice, chronic FLX 10 mg/kg/day i.p. 3 weeks (SAL 351±38)): 165±24
- latency to access a food pellet (mice [1]; p11f/f;D2-Cre conditional knockout mice, chronic FLX (SAL 364±46)): 296±58
- home cage feeding level (mice [2]): did not have a significant influence
- food intake after coming back to the home cage (mice [2]; control and p11 / Smarca3 cKO mice, chronic SSRI): no change in food intake
- number of BrdU+ proliferating cells in the subgranular zone ([4]; Gi-DREADD mice, chronic FLX (SAL 172±27)): 232±20
- number of BrdU+ proliferating cells in the subgranular zone ([4]; control (mCherry) D2-Cre mice, chronic FLX (SAL 177±18)): 337±37
- BrdU+ proliferating cells ([4]; control mice, chronic fluoxetine (SAL 173±16)): 290±43
- inactivity (immobility) in TST (mice [6]; Gi-DREADD mice, chronic FLX (SAL 128±9)): 129±10
- inactivity (immobility) in TST (mice [6]; control (mCherry) mice, chronic FLX (SAL 141±9)): 110±9
- mossy cell activity (spontaneous firing rate) (mossy cells; acute fluoxetine treatment): had no effect on mossy cell activity
- spontaneous firing rate of mossy cells (mossy cells; chronic fluoxetine treatment (control 2.36±0.41 Hz)): 4.19±0.92 Hz
- survival and differentiation of newborn neuronal progenitors (DCX expression) [7]: enhanced the survival of newborn neuronal progenitors and promoted differentiation into mature neurons

Molecule: C[N+]1([O-])CCN(C2=Nc3cc(Cl)ccc3Nc3ccccc32)CC1 [CNO, clozapine-N-oxide]
- activity of mossy cells (mossy cells; Gi-DREADD mice, mCherry-labeled mossy cells): silenced
- activity of mossy cells (mossy cells; control mCherry mice): not in control mice
